Source: patent US20230113037A1 (Bayer Aktiengesellschaft, priority 2019, published 2023)
Where two headings read alike, the source gives them in different places.

Experiments:
AHR [1] = target: T1, AHR (Homo sapiens, UniProt P35869); assay: In vitro assay 1: antagonism in human cell line (AHR transactivation, firefly luciferase reporter, kynurenic acid prestimulated); type: cell-based; details: AHR Antagonism Human IC50 [M]
T1 construct: U87 MG glioblastoma cells (ATCC #HTB-14) endogenously expressing AHR; endogenous in cells; host or cells: U87 MG glioblastoma cells (ATCC #HTB-14)
T1 sequence (P35869 11-848): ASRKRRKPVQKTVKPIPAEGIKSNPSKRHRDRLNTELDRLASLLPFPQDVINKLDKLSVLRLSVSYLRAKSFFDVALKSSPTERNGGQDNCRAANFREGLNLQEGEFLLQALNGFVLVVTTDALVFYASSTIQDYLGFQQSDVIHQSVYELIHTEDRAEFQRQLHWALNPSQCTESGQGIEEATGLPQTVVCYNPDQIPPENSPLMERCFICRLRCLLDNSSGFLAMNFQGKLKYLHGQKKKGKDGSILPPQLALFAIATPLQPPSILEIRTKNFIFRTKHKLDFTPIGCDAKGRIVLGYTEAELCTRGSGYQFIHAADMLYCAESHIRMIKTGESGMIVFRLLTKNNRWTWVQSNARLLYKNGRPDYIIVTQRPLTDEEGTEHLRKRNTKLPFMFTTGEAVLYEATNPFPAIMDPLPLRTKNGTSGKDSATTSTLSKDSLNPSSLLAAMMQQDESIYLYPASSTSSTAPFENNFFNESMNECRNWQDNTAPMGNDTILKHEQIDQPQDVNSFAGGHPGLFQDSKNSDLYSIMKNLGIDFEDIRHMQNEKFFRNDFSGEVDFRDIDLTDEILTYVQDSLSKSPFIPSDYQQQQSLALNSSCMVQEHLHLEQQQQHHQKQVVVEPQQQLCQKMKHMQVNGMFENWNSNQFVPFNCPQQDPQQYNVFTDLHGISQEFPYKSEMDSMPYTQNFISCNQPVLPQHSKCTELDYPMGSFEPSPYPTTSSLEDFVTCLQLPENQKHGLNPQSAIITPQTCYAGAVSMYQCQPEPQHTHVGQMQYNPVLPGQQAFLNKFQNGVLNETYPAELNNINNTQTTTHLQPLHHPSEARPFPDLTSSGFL
In short: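 U87 MG + DRE-firefly/constitutive-Renilla stable reporters; kynurenic acid prestim; dual-luc read; Renilla = tox; normalized vs pos/neg controls (pos: 150 μM KYNA + 5 μM staurosporine).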

AHR [2] = target: T2, AHR (Mus musculus, UniProt P30561); assay: In vitro assay 3: antagonism in mouse cell line (AHR transactivation, firefly luciferase reporter, kynurenic acid prestimulated); type: cell-based
T2 sequence (P30561 1-848 P471L/N533S/M589L): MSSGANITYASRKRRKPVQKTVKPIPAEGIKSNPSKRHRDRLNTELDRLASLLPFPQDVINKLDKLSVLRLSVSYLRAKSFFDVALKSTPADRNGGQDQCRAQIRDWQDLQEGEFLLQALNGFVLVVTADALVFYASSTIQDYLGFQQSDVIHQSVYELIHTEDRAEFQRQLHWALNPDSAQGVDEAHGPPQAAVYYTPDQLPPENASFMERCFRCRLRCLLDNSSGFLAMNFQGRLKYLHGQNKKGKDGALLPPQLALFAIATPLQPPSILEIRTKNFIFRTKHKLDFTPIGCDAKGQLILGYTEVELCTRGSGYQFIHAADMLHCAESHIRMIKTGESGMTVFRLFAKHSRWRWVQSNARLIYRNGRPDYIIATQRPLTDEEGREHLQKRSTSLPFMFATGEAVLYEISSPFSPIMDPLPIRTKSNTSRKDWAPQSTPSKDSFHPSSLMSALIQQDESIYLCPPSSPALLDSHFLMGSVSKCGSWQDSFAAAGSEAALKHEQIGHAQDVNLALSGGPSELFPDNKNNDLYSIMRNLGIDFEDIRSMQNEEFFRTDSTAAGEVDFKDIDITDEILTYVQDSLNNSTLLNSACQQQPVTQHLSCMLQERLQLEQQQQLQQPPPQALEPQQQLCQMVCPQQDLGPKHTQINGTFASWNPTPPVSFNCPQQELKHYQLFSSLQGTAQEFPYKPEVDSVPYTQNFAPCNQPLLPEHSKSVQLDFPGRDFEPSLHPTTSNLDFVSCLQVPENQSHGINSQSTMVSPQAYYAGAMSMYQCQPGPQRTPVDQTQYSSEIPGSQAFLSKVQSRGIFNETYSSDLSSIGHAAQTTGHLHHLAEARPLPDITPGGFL
In short: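 Mouse cells stably carrying a DRE-driven AHR-inducible firefly luciferase reporter were prestimulated with the endogenous agonist kynurenic acid before compound addition. Luciferase read by SteadyGlo; cells without kynurenic acid served as full-inhibition control, with normalization to positive and negative controls. Repeat tests reported as mean or median.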

[3] = read-out: AHR Antagonism Mouse IC50, mouse Hepa 1c1c7 cells, 200 μM kynurenic acid, 20 hours
[4] = mouse Hepa 1c1c7 cells, 200 μM kynurenic acid, 20 hours, read-out: AHR Antagonism Mouse IC50
[5] = Hepa 1c1c7 cells, 200 μM kynurenic acid, 20 hours, firefly luciferase reporter, read-out: AHR Antagonism Mouse IC50

SMILES | IC50 (AHR [1]) [M] | IC50 (AHR [2]; [4]) [nM] | other results
CC[C@H](Nc1nc2ccccc2c2nc(-c3ccccc3OC(F)F)nn12)C(N)=O [Example 475, (2S)-2-({2-[2-(difluoromethoxy)phenyl][1,2,4]triazolo[1,5-c]quinazolin-5-yl}amino)butanamaide] | > 2e-05 |  | IC50 (AHR [2]; [3]): 71.7 nM
Cn1cc(-c2nc3c4c(C(F)(F)F)cccc4nc(N[C@@H]4CNCCNC4=O)n3n2)cn1 [Example 286, (6R)-6-{[2-(1-methyl-1H-pyrazol-4-yl)-10-(trifluoromethyl)[1,2,4]triazolo[1,5-c]quinazolin-5-yl]amino}-1,4-diazepan-5-one] | 2.78e-06 | 3350 | 
O=C1NCCNC[C@@H]1Nc1nc2c(Br)cccc2c2nc(-c3cnn(C4CC4)c3)nn12 [Example 953, (6S)-6-{[7-bromo-2-(1-cyclopropyl-1H-pyrazol-4-yl)[1,2,4]triazolo[1,5-c]quinazolin-5-yl]amino}-1,4-diazepan-5-one] |  |  | IC50 (AHR [1]; firefly luciferase reporter): 2.14e-08 M; IC50 (AHR [2]; read-out: AHR Antagonism Mouse IC50, Hepa 1c1c7 cells, 200 μM kynurenic acid, 20 hours, firefly luciferase reporter): 14.9 nM
O=C1NCCCC[C@H]1Nc1nc2c(Br)cccc2c2nc(-c3cnn(CC4CC4)c3)nn12 [Example 826, (3R)-3-({7-bromo-2-[1-(cyclopropylmethyl)-1H-pyrazol-4-yl][1,2,4]triazolo[1,5-c]quinazolin-5-yl}amino)azepan-2-one] |  |  | IC50 (AHR [1]; firefly luciferase reporter): 1.77e-09 M; IC50 (AHR [2]; [5]): 2.26 nM
Cc1nn(C)cc1-c1nc2c3cccc(C(F)(F)F)c3nc(N[C@@H]3CNCCNC3=O)n2n1 [Example 975, (6R)-6-{[2-(1,3-dimethyl-1H-pyrazol-4-yl)-7-(trifluoromethyl)[1,2,4]triazolo[1,5-c]quinazolin-5-yl]amino}-1,4-diazepan-5-one] |  |  | IC50 (AHR [1]; firefly luciferase reporter): 8.67e-10 M; IC50 (AHR [2]; [5]): 4.24 nM
O=C1NCCCC[C@H]1Nc1nc2c(Br)cccc2c2nc(-c3cnn(CC4CCC4)c3)nn12 [Example 832, (3R)-3-({7-bromo-2-[1-(cyclobutylmethyl)-1H-pyrazol-4-yl][1,2,4]triazolo[1,5-c]quinazolin-5-yl}amino)azepan-2-one] |  |  | IC50 (AHR [1]; firefly luciferase reporter): 2.58e-09 M; IC50 (AHR [2]; [5]): 5.68 nM
O=C1NCCCC[C@H]1Nc1nc2ccccc2c2nc(-c3ccccn3)nn12 [Example 124, (3R)-3-{[2-(pyridin-2-yl)[1,2,4]triazolo[1,5-c]quinazolin-5-yl]amino}azepan-2-one] | 2.83e-08 | 54.1 | 
O=C1NCCCC[C@H]1Nc1nc2ccccc2c2nc(-c3cccnc3)nn12 [Example 125, (3R)-3-{[2-(pyridin-3-yl)[1,2,4]triazolo[1,5-c]quinazolin-5-yl]amino}azepan-2-one] | 5.68e-10 | 4.64 | 
COc1ccc(-c2nc3c4ccccc4nc(N[C@H](C)C(=O)NC4CCCCC4)n3n2)cc1 [Example 665, N-cyclohexyl-N2-[2-(4-methoxyphenyl)[1,2,4]triazolo[1,5-c]quinazolin-5-yl]-D-alaninamide] | 1.87e-08 |  | IC50 (AHR [2]; [3]): 11.3 nM
O=C1NCCCC[C@H]1Nc1nc2c(C(F)(F)F)cccc2c2nc(-c3ccc(F)cc3)nn12 [Example 203, (3R)-3-{[2-(4-fluorophenyl)-7-(trifluoromethyl)[1,2,4]triazolo[1,5-c]quinazolin-5-yl]amino}azepan-2-one] | 6.29e-10 | 0.48 | 
O=C1NCC[C@H]1Nc1nc2c(Br)cccc2c2nc(-c3ccccc3OC(F)(F)F)nn12 [Example 219, (3R)-3-({7-bromo-2-[2-(trifluoromethoxy)phenyl][1,2,4]triazolo[1,5-c]quinazolin-5-yl}amino)pyrrolidin-2-one] | 8.15e-08 | 7.14 | 
COC(=O)[C@H](Nc1nc2c(Br)cccc2c2nc(-c3cnn(C)c3)nn12)C(C)C [Example 868, methyl N-[7-bromo-2-(1-methyl-1H-pyrazol-4-yl)[1,2,4]triazolo[1,5-c]quinazolin-5-yl]-D-valinate] |  |  | IC50 (AHR [1]; firefly luciferase reporter): 6.28e-09 M; IC50 (AHR [2]; [5]): 6.29 nM
Cc1[nH]ncc1-c1nc2c3ccccc3nc(N[C@@H]3CCCCNC3=O)n2n1 [Example 609, (3R)-3-{[2-(5-methyl-1H-pyrazol-4-yl)[1,2,4]triazolo[1,5-c]quinazolin-5-yl]amino}azepan-2-one] | 1.57e-07 | 324 | 
COc1ccc(-c2nc3c4ccccc4nc(N[C@@H]4CCCCNC4=O)n3n2)cc1OC [Example 624, (3R)-3-{[2-(3,4-dimethoxyphenyl)[1,2,4]triazolo[1,5-c]quinazolin-5-yl]amino}azepan-2-one] | 3.49e-09 | 1.24 | 
CCC[C@@H](Nc1nc2c(Br)cccc2c2nc(-c3ccc(C#N)cc3)nn12)C(=O)NC [Example 562, N^2-[7-bromo-2-(4-cyanophenyl)[1,2,4]triazolo[1,5-c]quinazolin-5-yl]-N-methyl-D-norvalinamide] | 1.37e-09 | 2.98 | 
Cn1cc(-c2nc3c4c(C#N)cccc4nc(N[C@@H]4CCCCNC4=O)n3n2)cn1 [Example 247, 2-(1-methyl-1H-pyrazol-4-yl)-5-{[(3R)-2-oxoazepan-3-yl]amino}[1,2,4]triazolo[1,5-c]quinazoline-10-carbonitrile] | 3.08e-07 | 591 | 
COc1ccc(-c2nc3c4cccc(Br)c4nc(N[C@H](C)C(=O)N4C[C@H]5C[C@@H]4CO5)n3n2)cc1 [Example 899, (2R)-2-{[7-bromo-2-(4-methoxyphenyl)[1,2,4]triazolo[1,5-c]quinazolin-5-yl]amino}-1-[(1R,4R)-2-oxa-5-azabicyclo[2.2.1]heptan-5-yl]propan-1-one] |  |  | IC50 (AHR [1]; firefly luciferase reporter): 1.12e-09 M; IC50 (AHR [2]; [5]): 0.885 nM
O=C1NCCCC[C@@H]1Nc1nc2ccccc2c2nc(-c3cccc(F)c3)nn12 [Example 10, (3S)-3-{[2-(3-fluorophenyl)[1,2,4]triazolo[1,5-c]quinazolin-5-yl]amino}azepan-2-one] | 2.71e-08 |  | IC50 (AHR [2]; [3]): 7.93 nM
O=C1NCCCC[C@H]1Nc1nc2c(Br)cccc2c2nc(-c3cn[nH]c3)nn12 [Example 579, (3R)-3-{[7-bromo-2-(1H-pyrazol-4-yl)[1,2,4]triazolo[1,5-c]quinazolin-5-yl]amino}azepan-2-one] | 1.13e-08 | 68.1 | 

More lines, main results first:

IC50 (AHR [1]) [M] | IC50 (AHR [2]; [4]) [nM] | SMILES | other results
> 2e-06 | 142 | CCCNC(=O)[C@H](CC)Nc1nc2c(Br)cccc2c2nc(-c3ccc(Cl)cc3OC(F)(F)F)nn12 [Example 685, (2S)-2-({7-bromo-2-[4-chloro-2-(trifluoromethoxy)phenyl][1,2,4]triazolo[1,5-c]quinazolin-5-yl}amino)-N-propylbutanamide] | 
1.29e-07 | 79.7 | C[C@@H](Nc1nc2c(Br)cccc2c2nc(-c3cnn(C)c3)nn12)C(=O)NCCN1CCOCC1 [Example 782, N^2-[7-bromo-2-(1-methyl-1H-pyrazol-4-yl)[1,2,4]triazolo[1,5-c]quinazolin-5-yl]-N-[2-(morpholin-4-yl)ethyl]-D-alaninamide] | 
